Earlier results, collected in patent publication US20050164987A1, “Melatonin combination therapy for improving sleep quality” (priority 2003, published 2005).
Like-named read-outs stand apart in the source and are kept apart here.

What was measured:
MT-3 melatonin sites = details: hamster brain
[1] = system: other melatonin receptors
levels of melatonin = details: rats
human MT1 receptors = human MT1 receptors (Homo sapiens, UniProt P48039)
[2] = in vivo
physiological rhythms = details: 5 mg dose; simulated 9 h time lag
[3] = system: mammalian melatonin receptors
rats [4] = system: rats
ML2 receptors = ML2 receptors (Homo sapiens, UniProt P16083)
Chain of ML2 receptors (P16083 whole entry): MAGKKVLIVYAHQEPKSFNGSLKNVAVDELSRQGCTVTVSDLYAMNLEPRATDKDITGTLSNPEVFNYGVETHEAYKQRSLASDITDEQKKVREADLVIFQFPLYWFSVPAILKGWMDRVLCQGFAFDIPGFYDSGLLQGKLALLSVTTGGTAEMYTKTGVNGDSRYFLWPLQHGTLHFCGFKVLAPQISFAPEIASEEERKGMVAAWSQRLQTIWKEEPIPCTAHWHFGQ

rats [5] = system: rats; remark: listed apart in the source
[6] = molecular target: T1, brain omega-1 receptor located on alpha subunit of the GABAA/chloride ion channel receptor complex (Homo sapiens, UniProt P14867+P18507)
T1 construct: host or cells: brain
T1 sequence (P14867 28-456): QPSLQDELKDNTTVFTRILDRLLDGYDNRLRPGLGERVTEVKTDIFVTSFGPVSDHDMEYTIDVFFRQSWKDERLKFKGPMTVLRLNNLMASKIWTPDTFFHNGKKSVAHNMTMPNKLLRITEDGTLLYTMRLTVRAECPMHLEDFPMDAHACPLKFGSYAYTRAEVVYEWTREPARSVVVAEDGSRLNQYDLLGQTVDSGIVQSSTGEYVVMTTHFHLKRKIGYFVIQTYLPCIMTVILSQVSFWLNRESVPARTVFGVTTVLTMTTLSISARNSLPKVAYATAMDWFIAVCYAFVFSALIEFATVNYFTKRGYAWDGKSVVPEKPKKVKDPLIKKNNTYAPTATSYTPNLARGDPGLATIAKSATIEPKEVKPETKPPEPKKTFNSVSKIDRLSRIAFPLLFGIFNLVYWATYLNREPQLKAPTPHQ
T1 sequence (P18507 40-475): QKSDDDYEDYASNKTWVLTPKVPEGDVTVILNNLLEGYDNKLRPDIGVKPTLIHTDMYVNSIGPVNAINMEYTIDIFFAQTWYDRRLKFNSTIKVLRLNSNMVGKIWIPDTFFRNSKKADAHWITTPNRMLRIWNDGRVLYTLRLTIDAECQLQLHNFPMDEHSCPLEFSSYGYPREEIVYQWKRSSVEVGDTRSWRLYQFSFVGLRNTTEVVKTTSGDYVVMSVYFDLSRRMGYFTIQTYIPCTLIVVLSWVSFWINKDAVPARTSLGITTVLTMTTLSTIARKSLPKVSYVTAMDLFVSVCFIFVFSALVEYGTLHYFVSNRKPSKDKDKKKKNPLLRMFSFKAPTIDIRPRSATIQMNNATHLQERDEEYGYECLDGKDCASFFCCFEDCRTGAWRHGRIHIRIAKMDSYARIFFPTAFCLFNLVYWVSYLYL
T1 sequence (P47870 25-512 partner limits assumed): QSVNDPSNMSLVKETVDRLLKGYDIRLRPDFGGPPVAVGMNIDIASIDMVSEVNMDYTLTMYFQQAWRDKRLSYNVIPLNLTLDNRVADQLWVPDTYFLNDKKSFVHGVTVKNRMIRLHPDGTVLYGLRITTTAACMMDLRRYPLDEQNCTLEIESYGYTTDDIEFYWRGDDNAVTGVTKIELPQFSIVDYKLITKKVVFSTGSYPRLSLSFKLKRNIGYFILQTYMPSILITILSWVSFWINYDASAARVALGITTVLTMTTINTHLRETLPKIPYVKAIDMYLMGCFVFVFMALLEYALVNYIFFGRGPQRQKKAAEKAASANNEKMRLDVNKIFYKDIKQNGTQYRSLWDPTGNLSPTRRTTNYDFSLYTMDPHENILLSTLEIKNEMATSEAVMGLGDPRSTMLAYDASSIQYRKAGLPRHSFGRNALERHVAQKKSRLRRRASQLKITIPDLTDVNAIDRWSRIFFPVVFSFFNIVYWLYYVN

[7] = not given; remark: listed apart in the source
[8] = system: patients with major depressive disorder; details: 1, 5 and 25 mg once a day vs placebo, 8 weeks, over 700 patients
mice = details: reference agents; scores below 40 denote behavioral depression
[9] = system: lumbar dorsal horn interneurones and Renshaw cells; details: in vivo
GABA uptake system = details: concentrations of 5×10^-4 M
[10] = molecular target: GABA:2-oxo-glutarate aminotransferase (Homo sapiens, UniProt P80404); details: concentrations of 10^−3 M
Chain of GABA:2-oxo-glutarate aminotransferase (P80404 29-500): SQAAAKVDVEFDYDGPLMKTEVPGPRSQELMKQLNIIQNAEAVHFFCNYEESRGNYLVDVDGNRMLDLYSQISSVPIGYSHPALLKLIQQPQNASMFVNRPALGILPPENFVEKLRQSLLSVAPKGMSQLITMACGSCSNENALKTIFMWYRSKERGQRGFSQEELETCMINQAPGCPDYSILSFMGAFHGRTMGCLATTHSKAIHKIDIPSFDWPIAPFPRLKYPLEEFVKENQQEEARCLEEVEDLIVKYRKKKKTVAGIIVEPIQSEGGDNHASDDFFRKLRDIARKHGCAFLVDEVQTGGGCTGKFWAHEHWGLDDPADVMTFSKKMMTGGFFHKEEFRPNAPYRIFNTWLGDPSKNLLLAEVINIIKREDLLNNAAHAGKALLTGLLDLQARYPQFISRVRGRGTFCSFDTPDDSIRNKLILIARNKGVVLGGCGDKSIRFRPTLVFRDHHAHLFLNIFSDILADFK

[11] = system: L-glutamate 1-carboxylase; details: concentrations of 10^−3 M
[12] = system: healthy, elderly patients; details: oral administration
sleep = details: post-nap
[13] = system: calcium-dependent release of dopamine from rabbit retina; details: picomolar concentrations
[14] = system: calcium-dependent release of dopamine from chicken retina; details: picomolar concentrations
[15] = not given; remark: listed apart in the source
[16] = from the stomach
[17] = 10 mg or 64 mg dosages, compared to placebo

Chain of human MT1 receptors (P48039 whole entry): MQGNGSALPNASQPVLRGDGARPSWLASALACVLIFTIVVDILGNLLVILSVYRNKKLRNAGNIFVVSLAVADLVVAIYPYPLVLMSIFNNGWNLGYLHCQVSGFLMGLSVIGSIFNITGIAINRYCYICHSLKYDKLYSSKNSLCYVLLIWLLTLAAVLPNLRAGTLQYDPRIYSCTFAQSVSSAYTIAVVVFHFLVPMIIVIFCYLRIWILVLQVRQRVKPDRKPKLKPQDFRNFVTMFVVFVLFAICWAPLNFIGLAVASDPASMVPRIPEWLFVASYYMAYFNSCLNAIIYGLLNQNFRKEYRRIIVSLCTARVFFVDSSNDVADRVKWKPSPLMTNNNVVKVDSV

For COC(=O)Nc1ccc2[nH]cc(CCNC(C)=O)c2c1 [5-MCA-NAT, 5-methoxy-carbonylamino-N-acetyltryptamine], the “affinity for MT-3 melatonin sites” value (MT-3 melatonin sites) is listed as “high affinity” and the “affinity or efficacy for other melatonin receptors” value [1] is listed as “low affinity or efficacy”.

In the case of COc1cccc2c1CC(NC(C)=O)CC2 (centres unmarked) [AH-001, 2-acetamido-8-methoxytetralin], the levels of melatonin (levels of melatonin) is listed as “increase”.

In the case of CCC(=O)NCC1Cc2cccc(OC)c2C1 (centres unmarked) [GG-012, 4-methoxy-2-(methylenepropylamide)indan], the levels of melatonin (levels of melatonin) is listed as “two-fold increase”.

For CC(=O)NCCN1CCc2ccc3c(c21)CCO3 [GR196429, N-[2-[2,3,7,8-tetrahydro-1H-furo(2,3-g)indol-1-yl]ethyl]acetamide], the pKi (human MT1 receptors) is listed as 9.9.

In the case of CC(=O)N(C)c1cccc(-c2ccnc3c(C(=O)c4cccs4)cnn23)c1 [Indiplon, N-methyl-N-(3-{3-[2-thienylcarbonyl]-pyrazolo-[1,5-a]-pyrimidin-7-yl}-phenyl)acetamide], the half-life [2] is listed as “approximately 1.3 hours”.

For COc1cc2c([C@@H](C)CNC(C)=O)c[nH]c2cc1Cl [LY 156735], the “readaptation speed of physiological rhythms” value (physiological rhythms) is given as “enhanced the readaptation speed”.

In the case of CC(=O)NCCc1c(Cc2ccccc2)[nH]c2ccccc12 [Luzindole, 2-benzyl-N-acetyltryptamine], the “calcium-dependent release of [3H]dopamine” value ([3]; concentrations up to 10 μM) is listed as “does not modify”, the “spontaneous outflow of [3H]dopamine” value ([3]; concentrations up to 10 μM) is listed as “does not modify” and the “ability of melatonin to inhibit [3H]dopamine release” value ([3]; in a competitive fashion) is listed as “antagonize”.

For COc1ccc2[nH]cc(CCNc3ccc([N+](=O)[O-])cc3[N+](=O)[O-])c2c1 [ML-23, N-2,4-dinitrophenyl-5-methoxy-tryptamine], the “development of severe motor impairment” value (rats [4]) is given as “prevented”.

In the case of CP(=O)(O)CCCN [SKF 97541, 3-aminopropyl(methyl)phosphinic acid], the “solubility in water and dilute aqueous base” value is listed as “readily soluble”.

In the case of CCC(=O)NCC[C@@H]1CCc2ccc3c(c21)CCO3 [TAK-375], the “affinity for ML1 receptors” value (ML1 receptors) is listed as “very high affinity”, the “selectivity with respect to ML2 receptors” value (ML2 receptors) is listed as “excellent selectivity” and the “binding affinity for benzodiazepine receptors” value (benzodiazepine receptors) is listed as “virtually no binding affinity”. For the same compound, the “binding affinity for dopamine receptors” value (dopamine receptors) was “virtually no binding affinity”, the “binding affinity for opiate receptors” value (opiate receptors) was “virtually no binding affinity” and the “duration of sleep-promoting effects” value (rats [5]; compared with melatonin) was “last longer than those of melatonin”. The learning or memory (rats [5]; rat, in vivo) was “did not impair”, the “potential for drug dependence” value (rats [5]; rats) was “did not demonstrate the potential for drug dependence” and the falling asleep (human subjects; [17]) was “fall asleep more quickly”. The remaining asleep (human subjects; [17]) was “remain asleep for a longer period of time” and the side effects (human subjects; human subjects) was “limited to only a few cases of headache, somnolence, fatigue, nausea, and dissiness”.

In the case of CCN(C(C)=O)c1cccc(-c2ccnc3c(C#N)cnn23)c1 [Zaleplon, N-[3-(3-cyanopyrazolo[1,5-a]pyrimidin-7-yl)phenyl]-N-ethylacetamide], the “binding to brain omega-1 receptor” value [6] is listed as “binds selectively”, the “time of peak plasma concentrations” value ([7]; following oral administration) is listed as 1 h and the bioavailability ([7]; oral, substantial presystemic metabolism) is listed as 30%.

In the case of COc1ccc2cccc(CCNC(C)=O)c2c1 [agomelatine], the optimal dosage [8] is listed as 25 mg.

In the case of CN1C(=O)CN=C(c2ccccc2)c2cc(Cl)ccc21 [diazepam, 7-chloro-1,3-dihydro-1-methyl-5-phenyl-2H-1,4-benzodiazepin-2-one], the ED100 (mice) is listed as 50 mg/kg.

In the case of Oc1noc2c1CCNC2 [gaboxadol, 4,5,6,7-tetrahydroisoxazolo[5,4-c]pyridin-3-ol], the “effect of bicuculline methochloride (BMC) on the inhibitory action on central neurones” value [9] is listed as “reversibly antagonized”, the “interaction with the GABA uptake system” value (GABA uptake system) is listed as “did not interact” and the “interaction with GABA:2-oxo-glutarate aminotransferase” value [10] is listed as “did not interact”. For the same compound, the “interaction with L-glutamate 1-carboxylase” value [11] was “did not interact”, the “intensity of non-REM sleep” value [12] was “increase” and the sleep consolidation [12] was “increase”. The deep sleep (sleep) was “promoting”, the falling asleep (sleep) was “facilitates falling asleep” and the total sleep time (sleep) was “increasing”.

For CCC1(c2ccccc2)CCC(=O)NC1=O (centres unmarked) [glutethimide], the ED100 (mice) is given as 300 mg/kg.

In the case of O=C(CCCN1CCC(O)(c2ccc(Cl)cc2)CC1)c1ccc(F)cc1 [haloperidol], the ED100 (mice) is listed as 10 mg/kg.

For COc1ccc2[nH]cc(CCNC(C)=O)c2c1 [melatonin, N-[2-(5-Methoxy-1H-indol-3-yl)ethyl]acetamide], the “calcium-dependent release of dopamine” value [13] is given as “selectively inhibit” and the “calcium-dependent release of dopamine” value [14] is given as “selectively inhibit”.

In the case of CCCC(C)(COC(N)=O)COC(N)=O [meprobamate], the ED100 (mice) is given as 300 mg/kg.

In the case of CCCC(C)C1(CC)C(=O)NC(=O)NC1=O (centres unmarked) [pentobarbital], the ED100 (mice) is listed as 100 mg/kg.

For COC(=O)[C@H]1[C@H]2C[C@@H]3c4[nH]c5cc(OC)ccc5c4CCN3C[C@H]2C[C@@H](OC(=O)c2cc(OC)c(OC)c(OC)c2)[C@@H]1OC [reserpine], the ED100 (mice) is listed as 50 mg/kg.

For Cc1ccc(-c2nc3ccc(C)cn3c2CC(=O)N(C)C)cc1 [zolpidem, N,N,6-trimethyl-2-(4-methylphenyl)-imidazo[1,2-s]pyridine-3-acetamide], the “kinetics in the therapeutical dose range” value ([15]; between 5 and 10 mg in conventional forms) is given as “linear kinetics”, the bioavailability ([15]; following oral administration) is given as 70% and the duration of action ([15]; in vivo) is given as “up to 6 hours”. For the same compound, the “time at which peak plasma concentration is reached” value ([15]; in vivo) was 0.5 to 3 h and the elimination half-life ([15]; mean) was 2.4 h.

For zopiclone, the absorption [16] is listed as “well absorbed”.
